According to patent publication US11174237B2, “2-[4-(meihylaminomethyl)phenyl]-5-fluoro- benzofuran-7-carboxamide hydrochloride polymorph, preparation method therefor and application thereof” (SHANGHAI INSTITUTE OF MATERIA MEDICA, CHINESE ACADEMY OF …, priority 2017, dated 2021):

Test: Thermogravimetric analysis (TGA) of the crystal forms
Format: physicochemical
Procedure: 4) TGA method Instrument model: Netzsch TG 209F3, temperature range 30-400° C., scan rate 10K/min, purge gas flow rate 25 mL/min, shielding gas flow rate 15 mL/min.

Row | thermal stability (conclusion from the DSC/TG experimental results) | temperature at which the crystal form begins to decompose according to the thermogravimetric analysis (TG, 30-400° C., scan rate 10K/min) [°C] | Structure (SMILES)
1 | good thermal stability | – | CNCc1ccc(-c2cc3cc(F)cc(C(N)=O)c3o2)cc1.Cl [crystal form A, 2-[4-(methylaminomethyl)phenyl]-5-fluoro-benzofuran-7-carboxamide hydrochloride]
2 | – | 250±20 | CNCc1ccc(-c2cc3cc(F)cc(C(N)=O)c3o2)cc1.Cl [crystal form C, 2-[4-(methylaminomethyl)phenyl]-5-fluoro-benzofuran-7-carboxamide hydrochloride]
